ChEMBL document CHEMBL1649519, “Mitochondrial DNA depletion in rat liver induced by fosalvudine tidoxil, a novel nucleoside reverse transcriptase inhibitor prodrug” (Antimicrob Agents Chemother, 2009)

Tests used:
Settings in all cases: in vivo
[1] = test system: Rattus norvegicus; assay: Toxicity in Sprague-Dawley rat assessed as mortality at 100 mg/kg, po administered via gavage; type: organism-based; design: dose 100 mg/kg, route oral
[2] = test system: Rattus norvegicus; assay: Toxicity in Sprague-Dawley rat assessed as terminal body weight at 100 mg/kg, po administered via gavage (reference value: 517 +/- 55 g); type: organism-based; design: dose 100 mg/kg, route oral
[3] = test system: Rattus norvegicus; assay: Toxicity in Sprague-Dawley rat assessed as liver weight at 100 mg/kg, po administered via gavage (reference value: 18 +/- 2.8 g); type: organism-based; design: dose 100 mg/kg, route oral
[4] = test system: Rattus norvegicus; assay: Hepatotoxicity in Sprague-Dawley rat assessed as plasma GPT level at 100 mg/kg, po administered via gavage (reference value: 78.3 +/- 8.2 U/l); type: toxicity, organism-based; design: dose 100 mg/kg, route oral
[5] = test system: Rattus norvegicus; assay: Hepatotoxicity in Sprague-Dawley rat assessed as effect on plasma total bilirubin level at 15 to 100 mg/kg, po administered via gavage; type: toxicity, organism-based; design: dose 15-100 mg/kg, route oral
[6] = test system: Rattus norvegicus; assay: Hepatotoxicity in Sprague-Dawley rat assessed as copies of mitochondrial DNA per cell in liver at 100 mg/kg, po administered via gavage (reference value: 400 +/- 86 no_unit); type: toxicity, organism-based; design: dose 100 mg/kg, route oral
[7] = test system: Rattus norvegicus; assay: Hepatotoxicity in Sprague-Dawley rat assessed as copies of mitochondrial DNA per cell in gastrocnemius muscle at 100 mg/kg, po administered via gavage (reference value: 457 +/- 182 no_unit); type: toxicity, organism-based; design: dose 100 mg/kg, route oral
[8] = test system: Rattus norvegicus; assay: Hepatotoxicity in Sprague-Dawley rat assessed as copies of mitochondrial DNA per cell in inguinal fat pads at 100 mg/kg, po administered via gavage (reference value: 457 +/- 182 no_unit); type: toxicity, organism-based, Fat pad; design: dose 100 mg/kg, route oral
[9] = test system: Rattus norvegicus; assay: Hepatotoxicity in Sprague-Dawley rat assessed as copies of mitochondrial DNA per cell in sciatic nerves at 100 mg/kg, po administered via gavage (reference value: 457 +/- 182 no_unit); type: toxicity, organism-based, Sciatic nerve; design: dose 100 mg/kg, route oral
[10] = test system: Rattus norvegicus; assay: Toxicity in Sprague-Dawley rat assessed as mortality at 15 mg/kg, po administered via gavage; type: organism-based; design: dose 15 mg/kg, route oral
[11] = test system: Rattus norvegicus; assay: Toxicity in Sprague-Dawley rat assessed as mortality at 40 mg/kg, po administered via gavage; type: organism-based; design: dose 40 mg/kg, route oral
[12] = test system: Rattus norvegicus; assay: Toxicity in Sprague-Dawley rat assessed as terminal body weight at 15 mg/kg, po administered via gavage (reference value: 517 +/- 55 g); type: organism-based; design: dose 15 mg/kg, route oral
[13] = test system: Rattus norvegicus; assay: Toxicity in Sprague-Dawley rat assessed as terminal body weight at 40 mg/kg, po administered via gavage (reference value: 517 +/- 55 g); type: organism-based; design: dose 40 mg/kg, route oral
[14] = test system: Rattus norvegicus; assay: Toxicity in Sprague-Dawley rat assessed as liver weight at 15 mg/kg, po administered via gavage (reference value: 18 +/- 2.8 g); type: organism-based; design: dose 15 mg/kg, route oral
[15] = test system: Rattus norvegicus; assay: Toxicity in Sprague-Dawley rat assessed as liver weight at 40 mg/kg, po administered via gavage (reference value: 18 +/- 2.8 g); type: organism-based; design: dose 40 mg/kg, route oral
[16] = test system: Rattus norvegicus; assay: Hepatotoxicity in Sprague-Dawley rat assessed as plasma GPT level at 15 mg/kg, po administered via gavage (reference value: 78.3 +/- 8.2 U/l); type: toxicity, organism-based; design: dose 15 mg/kg, route oral
[17] = test system: Rattus norvegicus; assay: Hepatotoxicity in Sprague-Dawley rat assessed as plasma GPT level at 40 mg/kg, po administered via gavage (reference value: 78.3 +/- 8.2 U/l); type: toxicity, organism-based; design: dose 40 mg/kg, route oral
[18] = test system: Rattus norvegicus; assay: Hepatotoxicity in Sprague-Dawley rat assessed as copies of mitochondrial DNA per cell in liver at 15 mg/kg, po administered via gavage (reference value: 400 +/- 86); type: toxicity, organism-based; design: dose 15 mg/kg, route oral
[19] = test system: Rattus norvegicus; assay: Hepatotoxicity in Sprague-Dawley rat assessed as copies of mitochondrial DNA per cell in liver at 40 mg/kg, po administered via gavage (reference value: 400 +/- 86); type: toxicity, organism-based; design: dose 40 mg/kg, route oral
[20] = test system: Rattus norvegicus; assay: Hepatotoxicity in Sprague-Dawley rat assessed as copies of mitochondrial DNA per cell in gastrocnemius muscle at 15 mg/kg, po administered via gavage (reference value: 457 +/- 182 no_unit); type: toxicity, organism-based; design: dose 15 mg/kg, route oral
[21] = test system: Rattus norvegicus; assay: Hepatotoxicity in Sprague-Dawley rat assessed as copies of mitochondrial DNA per cell in gastrocnemius muscle at 40 mg/kg, po administered via gavage (reference value: 457 +/- 182 no_unit); type: toxicity, organism-based; design: dose 40 mg/kg, route oral
[22] = test system: Rattus norvegicus; assay: Hepatotoxicity in Sprague-Dawley rat assessed as copies of mitochondrial DNA per cell in inguinal fat pads at 15 mg/kg, po administered via gavage (reference value: 457 +/- 182 no_unit); type: toxicity, organism-based, Fat pad; design: dose 15 mg/kg, route oral
[23] = test system: Rattus norvegicus; assay: Hepatotoxicity in Sprague-Dawley rat assessed as copies of mitochondrial DNA per cell in inguinal fat pads at 40 mg/kg, po administered via gavage (reference value: 457 +/- 182 no_unit); type: toxicity, organism-based, Fat pad; design: dose 40 mg/kg, route oral
[24] = test system: Rattus norvegicus; assay: Hepatotoxicity in Sprague-Dawley rat assessed as copies of mitochondrial DNA per cell in sciatic nerves at 15 mg/kg, po administered via gavage (reference value: 457 +/- 182 no_unit); type: toxicity, organism-based, Sciatic nerve; design: dose 15 mg/kg, route oral
[25] = test system: Rattus norvegicus; assay: Hepatotoxicity in Sprague-Dawley rat assessed as copies of mitochondrial DNA per cell in sciatic nerves at 40 mg/kg, po administered via gavage (reference value: 457 +/- 182 no_unit); type: toxicity, organism-based, Sciatic nerve; design: dose 40 mg/kg, route oral

SMILES | Activity [1] | Activity [2] [g] | Activity [3] [g] | Activity [4] [U/L] | Activity [5] | Activity [6] | Activity [7] | Activity [8] | Activity [9] | other results
O=c1[nH]cnc2c1ncn2[C@H]1CC[C@@H](CO)O1 [DIDANOSINE] | Non-toxic | 501 | 16.2 | 68.8 | Non-toxic | 193 | 489 | 129 | 219 | 
CCCCCCCCCCCCSC[C@@H](COP(=O)(O)OC[C@H]1O[C@@H](n2cc(C)c(=O)[nH]c2=O)C[C@@H]1F)OCCCCCCCCCC [FOSALVUDINE TIDOXIL] | Toxic | 428 | 14.5 | 96.7 | Non-toxic | 188 | 548 | 158 | 213 | Activity [10]: Toxic; Activity [11]: Toxic; Activity [12]: 459 g; Activity [13]: 465 g; Activity [14]: 16.8 g; Activity [15]: 15.6 g; Activity [16]: 71 U/l; Activity [17]: 80.5 U/L; Activity [18]: 249; Activity [19]: 254; Activity [20]: 475; Activity [21]: 534; Activity [22]: 134; Activity [23]: 159; Activity [24]: 196; Activity [25]: 205
